Results reported in patent publication US20220409548A1, “AMORPHOUS SOLID DISPERSION OF PYRAZOLE-AMIDE COMPOUND” (JAPAN TOBACCO INC., priority 2019, published 2022).

Experiments:
[1] = Precipitation test in acidic media (pH 1.2); type: physicochemical; conditions: ethanol solution 100 mg/mL into JP 1st fluid pH 1.2, 450 mL; addition of copolyvidone, methylcellulose or hypromellose (0.01 g) vs HPMCAS, polyvinyl alcohol or no polymer; FIG. 3
Protocol: The dissolution test was performed using a dissolution tester (trade name: NTR-VS6P, manufactured by Toyama Sangyo Co., Ltd.) that conforms to the Japanese Pharmacopoeia Dissolution Test Method 2 (Paddle Method), at paddle rotating speed 75 rpm, test media amount 450 mL. An amount equivalent to 100 mg of the compound of the formula [I] was added to the test media, and the dissolved amount of the compound of the formula [I] was measured at each sampling point with a spectrophotometer (UV-1600, manufactured by Shimadzu Corporation).
The precipitation behavior of the compound of the formula [I], dissolved in ethanol (concentration: 100 mg/mL), in the following 6 types of test medium was evaluated by the same test method as in Experimental Example 1. […]

[2] = test system: pyruvate dehydrogenase kinase (PDHK); conditions: described in patent document 1 (WO 2014/142290); cited from earlier work

CC(C)(O)CCOc1cc(-c2cnn(C(C)(C)C(N)=O)c2)c2c(c1)[C@@](O)(C(F)(F)F)c1ccccc1-2 [compound of the formula [I], 2-{4-[(9R)-9-hydroxy-2-(3-hydroxy-3-methylbutyloxy)-9-(trifluoromethyl)-9H-fluoren-4-yl]-1H-pyrazol-1-yl}-2-methylpropanamide]
precipitation behavior in pH 1.2 test media [1]: significantly suppressed the precipitation
pyruvate dehydrogenase kinase (PDHK) inhibitory activity [2]: have a pyruvate dehydrogenase kinase (PDHK) inhibitory activity
